Conditions: pH 7.4
Procedure: As a bioactive substance, flavone (manufactured by Tokyo Chemical Industry Co., Ltd., NO. H0721) was used.
Any substance in the substance group A and a bioactive substance were added to 10 mL of distilled water and mixed to prepare a solution (or suspension), which was used as a test liquid. The substance in the substance group A was added in an amount such that the concentration in the test liquid was 10 mg/mL. The bioactive substance was added in an amount such that the concentration in the test liquid was 250 µg/mL. As a control, a test liquid (flavone only) to which a substance in the substance group A was not added was also prepared.
A receptor part of a Franz-type vertical diffusion cell was filled with a phosphate buffer (pH 7.4) containing 0.5% sodium taurocholate, and a Strat-M membrane for a transdermal diffusion test (manufactured by Merck) was attached as a permeable membrane. After 400 µL of the test liquid was dropped on the donor side, a receptor liquid was sampled over time. The amount of the bioactive substance in the sampled receptor liquid was quantified by high performance liquid chromatography. The experiment was performed with N = 1.

skin permeation amount of flavone: hardly changed
SMILES: C[C@@H]1O[C@@H](O[C@H]2[C@H](Oc3cc(O)c4c(c3)O[C@H](c3ccc(O)cc3)CC4=O)O[C@H](CO)[C@@H](O)[C@@H]2O)[C@H](O)[C@H](O)[C@H]1O [naringin, Naringin]

Reference: EP4755386A1, “SKIN PERMEATION PROMOTER AND SKIN PERMEATION PROMOTION METHOD” (Toyo Sugar Refining Co., Ltd., priority 2023, dated 2025)
